# Source: US10513523B2, “Imidazopyrazines and pyrazolopyrimidines and their use as AMPA receptor modulators” (Janssen Pharmaceutica NV, priority 2015, dated 2019)
# Target: GluA1o-γ8 (GRIA1o-CACNG8 fusion construct; TARP γ8 dependent AMPA receptor) (Homo sapiens (Human), UniProt P42261+Q8WXS5)
# Assay: Calcium flux assay (FLIPR), inhibition of glutamate response of GluA1o-γ8 channel
# Assay type: cell-based
# Settings: HEK293 cells stably expressing GRIA1o-CACNG8 fusion; 15 μM glutamate; pIC50 = negative log of IC50 in molar; read-out: GluR1-γ8 (pIC50) (converted)
# From the text: This assay was used to test compounds for their ability to inhibit TARP γ8 dependent AMPA receptor activity. The AMPA receptor is a non-selective cation channel activated by glutamate. Ionotropic glutamate receptors normally desensitize too rapidly to allow detectable calcium influx in a FLIPR assay (Strange et al. (2006). “Functional characterisation of homomeric ionotropic glutamate receptors GluR1-GluR6 in a fluorescence-based high throughput screening assay.” Comb Chem High Throughput Screen 9(2): 147-158). But, this desensitization is incomplete, and a substantial steady-state current remains in the sustained presence of glutamate (Cho et al. (2007). “Two families of TARP isoforms that have distinct effects on the kinetic properties of AMPA receptors and synaptic currents.” Neuron 55(6): 890-904).
# An in vitro assay was used to determine the potency of test compounds as inhibitors of the glutamate response of the channel formed by GluA1o-γ8. To ensure a 1:1 stoichiometry of GluA10 and γ8 subunits in the expressed channel, a fusion of the cDNAs for GRIA1o and CACNG8 was used. Following Shi et al (2009) “The stoichiometry of AMPA receptors and TARPs varies by neuronal cell type.” Neuron 62(5): […]), the C-terminus of the cDNA for GRI1o was fused to the N-terminus of the cDNA for γ8. The linker sequence was […]. […] A clonal cell line in HEK293 cells stably expressing this construct, with a geneticin selection marker, was generated for use in this assay. Cell expressing the GRIA1o-CACNG8 fusion construct were grown in a monolayer in 96- or 384-well microtiter plates. They were washed with assay buffer (135 mM NaCl, 4 mM KCl, 3 mM CaCl2, 1 mM MgCl2, 5 mM glucose, 10 mM HEPES, pH 7.4, 300 mOs) using a Biotek EL405 plate washer. The cells were then loaded with a calcium-sensitive dye (Calcium-5 or Calcium-6, Molecular Devices) and the test compounds at a range of concentrations. Calcium flux following the addition of 15 μM glutamate was monitored using a Molecular Devices FLIPR Tetra.
# The fluorescence in each well was normalized to the fluorescence of negative and positive control wells. […] The responses to glutamate as functions of the test compound concentrations were fitted to a four-parameter logistic function. The fitted parameter corresponding to the midpoint was taken to be the potency of inhibition of the compound.
# GluA1o-γ8 (GRIA1o-CACNG8 fusion construct; TARP γ8 dependent AMPA receptor), sequence (P42261 other isoform, or with tags, fused parts or gaps): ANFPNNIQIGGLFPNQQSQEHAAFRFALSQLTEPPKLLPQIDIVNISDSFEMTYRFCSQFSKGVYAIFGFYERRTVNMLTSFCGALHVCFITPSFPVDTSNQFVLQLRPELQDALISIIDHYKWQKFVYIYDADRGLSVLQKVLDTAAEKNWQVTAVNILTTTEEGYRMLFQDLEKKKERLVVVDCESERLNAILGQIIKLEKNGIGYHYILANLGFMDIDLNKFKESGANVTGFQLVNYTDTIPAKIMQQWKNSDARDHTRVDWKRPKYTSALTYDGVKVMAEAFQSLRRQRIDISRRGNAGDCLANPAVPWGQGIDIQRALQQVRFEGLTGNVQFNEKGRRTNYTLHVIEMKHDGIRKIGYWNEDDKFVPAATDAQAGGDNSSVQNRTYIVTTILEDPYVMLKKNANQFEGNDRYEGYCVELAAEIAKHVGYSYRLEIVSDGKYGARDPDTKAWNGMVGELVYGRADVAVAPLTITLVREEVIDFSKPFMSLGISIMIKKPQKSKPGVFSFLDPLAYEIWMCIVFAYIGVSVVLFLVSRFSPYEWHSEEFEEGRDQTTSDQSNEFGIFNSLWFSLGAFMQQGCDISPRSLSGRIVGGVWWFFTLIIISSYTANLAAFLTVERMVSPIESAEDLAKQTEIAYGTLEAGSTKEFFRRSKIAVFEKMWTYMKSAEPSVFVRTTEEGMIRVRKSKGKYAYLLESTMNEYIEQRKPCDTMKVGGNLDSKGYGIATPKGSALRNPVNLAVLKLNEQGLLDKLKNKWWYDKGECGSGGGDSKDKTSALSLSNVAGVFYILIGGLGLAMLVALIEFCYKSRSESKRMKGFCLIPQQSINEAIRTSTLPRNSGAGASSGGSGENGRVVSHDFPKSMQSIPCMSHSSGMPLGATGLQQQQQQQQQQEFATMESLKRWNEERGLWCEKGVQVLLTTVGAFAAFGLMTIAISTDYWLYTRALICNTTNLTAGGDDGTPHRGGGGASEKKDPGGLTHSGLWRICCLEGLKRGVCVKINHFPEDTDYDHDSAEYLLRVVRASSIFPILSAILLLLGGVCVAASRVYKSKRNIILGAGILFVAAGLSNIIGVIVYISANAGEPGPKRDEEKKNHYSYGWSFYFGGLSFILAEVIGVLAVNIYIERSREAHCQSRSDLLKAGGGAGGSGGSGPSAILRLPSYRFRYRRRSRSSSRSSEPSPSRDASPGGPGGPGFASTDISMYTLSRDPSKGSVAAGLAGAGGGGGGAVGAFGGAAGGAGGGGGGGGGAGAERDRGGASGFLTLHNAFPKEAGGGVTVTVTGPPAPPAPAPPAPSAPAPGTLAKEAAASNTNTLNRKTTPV
row,SMILES,IC50
1,"O=c1[nH]c2ccc(-c3c(C4CC4)nn4cnc(C(F)(F)F)cc34)cc2s1 [Example 230, 6-[2-Cyclopropyl-5-(trifluoromethyl)pyrazolo[1,5-c]pyrimidin-3-yl]-3H-1,3-benzothiazol-2-one]",398 nM
2,"O=C1Cc2cc(-c3c(C4CCCC4)nc4c(N5CCOCC5)nccn34)ccc2N1 [Example 57, 5-(2-Cyclopentyl-8-morpholino-imidazo[1,2-a]pyrazin-3-yl)indolin-2-one]",15.8 nM
3,"O=C1Cc2cc(-c3c(-c4ccc(F)cc4)nc4c(N5CC[C@@H](O)C5)nccn34)ccc2N1 (single isomer, unassigned) [Example 52, (R*)-5-[2-(4-Fluorophenyl)-8-(3-hydroxypyrrolidin-1-yl)imidazo[1,2-a]pyrazin-3-yl]indolin-2-one]",1.58 nM
4,"CC(=O)N1CCN(c2nccn3c(-c4ccc5[nH]c(=O)[nH]c5c4)c(-c4ccc(F)cc4)nc23)CC1 [Example 14, 5-[8-(4-Acetylpiperazin-1-yl)-2-(4-fluorophenyl)imidazo[1,2-a]pyrazin-3-yl]-1,3-dihydrobenzimidazol-2-one]",1.58 nM
5,"CC(=O)N[C@@H]1CCN(c2nccn3c(-c4ccc5c(c4)CC(=O)N5)c(-c4ccc(F)cc4)nc23)C1 [Example 250, N-[(3R)-1-[2-(4-Fluorophenyl)-3-(2-oxoindolin-5-yl)imidazo[1,2-a]pyrazin-8-yl]pyrrolidin-3-yl]acetamide]",39.8 nM
6,"O=C1Cc2cc(-c3c(C(=O)c4ccccc4)nc4c(N5CCS(=O)(=O)CC5)nccn34)ccc2N1 [Example 157, 5-[2-Benzoyl-8-(1,1-dioxo-1,4-thiazinan-4-yl)imidazo[1,2-a]pyrazin-3-yl]indolin-2-one]",2.51 nM
7,"Oc1ccc(-c2c(-c3ccc(F)cc3)nc3c(N4CCCCC4)nccn23)cc1 [Example 9, 4-[2-(4-Fluorophenyl)-8-(1-piperidyl)imidazo[1,2-a]pyrazin-3-yl]phenol]",200 nM
8,"COc1nccn2c(-c3ccc4c(c3)CC(=O)N4)c(-c3ccc(F)cc3)nc12 [Example 247, 5-[2-(4-Fluorophenyl)-8-methoxy-imidazo[1,2-a]pyrazin-3-yl]indolin-2-one]",79.4 nM
9,"CNc1nccc2c(-c3ccc4c(c3)CC(=O)N4)c(-c3ccc(F)cc3)nn12 [Example 171, 5-[2-(4-Fluorophenyl)-7-(methylamino)pyrazolo[1,5-c]pyrimidin-3-yl]indolin-2-one]",12.6 nM
10,"O=S1(=O)Cc2cc(-c3c(-c4ccc(F)cc4)nc4c(N5CC6(COC6)C5)nccn34)ccc2N1 [Example 108, 5-(2-(4-Fluorophenyl)-8-(2-oxa-6-azaspiro[3.3]heptan-6-yl)imidazo[1,2-a]pyrazin-3-yl)-1,3-dihydrobenzo[c]isothiazole 2,2-dioxide]",15.8 nM
11,"O=C1Cc2cc(-c3c(-c4ccccc4)nc4c(C5=CCOCC5)nccn34)ccc2N1 [Example 131, 5-(8-(3,6-Dihydro-2H-pyran-4-yl)-2-phenylimidazo[1,2-a]pyrazin-3-yl)indolin-2-one]",7.94 nM
12,"CC(C)(C)c1nn2c(N3CC(F)(F)C3)nccc2c1-c1ccc2c(c1)CC(=O)N2 [Example 183, 5-[2-tert-Butyl-7-(3,3-difluoroazetidin-1-yl)pyrazolo[1,5-c]pyrimidin-3-yl]indolin-2-one]",63.1 nM
13,"O=C1Cc2cc(-c3c(-c4ccccc4)nn4c(N5CCOCC5)ncc(Br)c34)ccc2N1 [Example 207, 5-(4-Bromo-7-morpholino-2-phenyl-pyrazolo[1,5-c]pyrimidin-3-yl)indolin-2-one]",0.398 nM
14,"O=C1Cc2cc(-c3c(-c4ccc(F)cc4)nc4c(N5CC(O)(C(F)(F)F)C5)nccn34)ccc2N1 [Example 69, 5-[2-(4-Fluorophenyl)-8-[3-hydroxy-3-(trifluoromethyl)azetidin-1-yl]imidazo[1,2-a]pyrazin-3-yl]indolin-2-one]",1 nM
15,"O=C1CN(c2nccn3c(-c4ccc5c(c4)CC(=O)N5)c(-c4ccc(F)cc4)nc23)CCN1 [Example 32, 5-[2-(4-Fluorophenyl)-8-(3-oxopiperazin-1-yl)imidazo[1,2-a]pyrazin-3-yl]indolin-2-one]",0.501 nM
16,"CN(C)c1nccc2c(-c3ccc4c(c3)CC(=O)N4)c(-c3ccc(F)cc3)nn12 [Example 169, 5-[7-(Dimethylamino)-2-(4-fluorophenyl)pyrazolo[1,5-c]pyrimidin-3-yl]indolin-2-one]",1.58 nM

row,SMILES,IC50
1,"CC(C)c1nn2c(N3CCOCC3)nccc2c1-c1ccc2[nH]ncc2c1 [Example 238, 4-[3-(1H-Indazol-5-yl)-2-isopropyl-pyrazolo[1,5-c]pyrimidin-7-yl]morpholine]",398 nM
2,"CC(=O)N1CCN(c2nccn3c(-c4ccc(O)cc4)c(-c4ccc(Cl)cc4)nc23)CC1 [Example 94, 1-[4-[2-(4-Chlorophenyl)-3-(4-hydroxyphenyl)imidazo[1,2-a]pyrazin-8-yl]piperazin-1-yl]ethanone]",3.16 nM
3,"O=C1Cc2cc(-c3c(C4CCCC4)nn4c(N5CC(F)C5)nccc34)ccc2N1 [Example 196, 5-[2-Cyclopentyl-7-(3-fluoroazetidin-1-yl)pyrazolo[1,5-c]pyrimidin-3-yl]indolin-2-one]",158 nM
4,"O=C1Cc2cc(-c3c(-c4ccc(F)cc4)nc4c(N5CCC5)nccn34)ccc2N1 [Example 58, 5-[8-(Azetidin-1-yl)-2-(4-fluorophenyl)imidazo[1,2-a]pyrazin-3-yl]indolin-2-one]",1.58 nM
5,"CC(C)(C)OC(=O)N1CCN(c2nccn3c(-c4ccc(O)cc4)c(-c4ccc(F)cc4)nc23)CC1 [Example 3, tert-Butyl 4-[2-(4-fluorophenyl)-3-(4-hydroxyphenyl)imidazo[1,2-a]pyrazin-8-yl]piperazine-1-carboxylate]",631 nM
6,"O=C1Cc2cc(-c3c(-c4ccc(F)cc4)nn4c(N5CCC(F)CC5)nccc34)ccc2N1 [Example 190, 5-[2-(4-Fluorophenyl)-7-(4-fluoro-1-piperidyl)pyrazolo[1,5-c]pyrimidin-3-yl]indolin-2-one]",0.2 nM
7,"O=C1Cc2cc(-c3c(-c4ccccc4)nc4c(N5CCOCC5)nccn34)ccc2N1 [Example 65, 5-(8-Morpholino-2-phenyl-imidazo[1,2-a]pyrazin-3-yl)indolin-2-one]",0.158 nM
8,"N#Cc1ccc(-c2nc3c(N4CCOCC4)nccn3c2-c2ccc3[nH]c(=O)[nH]c3c2)cc1 [Example 105, 4-[8-Morpholino-3-(2-oxo-1,3-dihydrobenzimidazol-5-yl)imidazo[1,2-a]pyrazin-2-yl]benzonitrile]",1.26 nM
9,"CN(C(=O)c1nc2c(N3CCOCC3)nccn2c1-c1ccc2[nH]c(=O)[nH]c2c1)c1ccccc1 [Example 145, N-Methyl-8-morpholino-3-(2-oxo-1,3-dihydrobenzimidazol-5-yl)-N-phenyl-imidazo[1,2-a]pyrazine-2-carboxamide]",501 nM
10,"CS(=O)(=O)c1nccn2c(-c3ccc4c(c3)CC(=O)N4)c(-c3ccc(F)cc3)nc12 [Example 127, 5-[2-(4-Fluorophenyl)-8-methylsulfonyl-imidazo[1,2-a]pyrazin-3-yl]indolin-2-one]",398 nM
11,"O=C1Cc2cc(-c3c(-c4ccc(F)cc4)nc4c(N5CCC(O)C(F)(F)C5)nccn34)ccc2N1 (stereo not shown) [Example 71, 5-[8-(3,3-Difluoro-4-hydroxy-1-piperidyl)-2-(4-fluorophenyl)imidazo[1,2-a]pyrazin-3-yl]indolin-2-one]",0.251 nM
12,"O=C1Cc2cc(-c3c(-c4ccc(F)cc4)nc4c(N5CCOCC5)ncc(Cl)n34)ccc2N1 [Example 163, 5-[5-Chloro-2-(4-fluorophenyl)-8-morpholino-imidazo[1,2-a]pyrazin-3-yl]indolin-2-one]",0.126 nM
13,"O=c1[nH]c2ccc(-c3c(-c4ccccc4)nc4cnc(C(F)(F)F)cn34)cc2s1 [Example 245, 6-[2-Phenyl-6-(trifluoromethyl)imidazo[1,2-a]pyrazin-3-yl]-3H-1,3-benzothiazol-2-one]",12.6 nM
14,"O=C1Cc2cc(-c3c(C(=O)NCc4ccccc4)nc4c(N5CCOCC5)nccn34)ccc2N1 [Example 142, N-Benzyl-8-morpholino-3-(2-oxoindolin-5-yl)imidazo[1,2-a]pyrazine-2-carboxamide]",31.6 nM
15,"O=C1Cc2cc(-c3c(-c4ccc(F)cc4)nc4c(F)nccn34)ccc2N1 [Example 132, 5-[8-Fluoro-2-(4-fluorophenyl)imidazo[1,2-a]pyrazin-3-yl]indolin-2-one]",631 nM
